Consider six compounds from patent publication US8431888B2, “Electrospray and nanospray ionization of discrete samples in droplet format” (priority 2009, dated 2013).

Assay [1] addresses T1, acetylcholinesterase (AchE) (Electrophorus electricus, UniProt O42275).
T1 construct: purchased Sigma (St. Louis, Mo.) Type VI-S (catalogue number not given)
The assay is described as follows: biochemical. The format is biochemical. The following applies: for AchE inhibition in screen (choline production): compound tested at 100 μM, triplicate, peak area ratio of choline to internal standard; for IC50: 10 inhibitor concentrations, 20 min at room temperature, choline formation, sigmoidal dose-response fit.

For assay [2], the system named is AchE. The following applies: read-out: previously reported IC50, cited from earlier work.
[3] abbreviates: literature values, experimental conditions not identical.

Where two headings read alike, the source gives them in different places.

T1 sequence (O42275 24-633): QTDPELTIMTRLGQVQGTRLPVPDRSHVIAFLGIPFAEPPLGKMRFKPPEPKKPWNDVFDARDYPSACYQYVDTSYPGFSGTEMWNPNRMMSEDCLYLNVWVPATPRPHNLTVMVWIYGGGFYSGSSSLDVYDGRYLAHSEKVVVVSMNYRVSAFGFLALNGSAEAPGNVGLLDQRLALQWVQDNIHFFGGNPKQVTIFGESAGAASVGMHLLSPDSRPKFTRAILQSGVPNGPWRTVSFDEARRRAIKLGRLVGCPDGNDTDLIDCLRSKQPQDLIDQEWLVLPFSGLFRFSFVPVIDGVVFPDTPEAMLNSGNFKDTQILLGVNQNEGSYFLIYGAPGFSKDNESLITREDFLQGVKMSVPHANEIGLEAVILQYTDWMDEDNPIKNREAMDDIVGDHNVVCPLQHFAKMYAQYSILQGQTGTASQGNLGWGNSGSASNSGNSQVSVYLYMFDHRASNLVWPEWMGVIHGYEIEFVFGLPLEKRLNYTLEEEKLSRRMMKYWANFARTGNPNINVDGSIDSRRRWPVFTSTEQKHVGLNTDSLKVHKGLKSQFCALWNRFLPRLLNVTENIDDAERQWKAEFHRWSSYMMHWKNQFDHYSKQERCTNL

Take `C[S+](C)[O-]` [DMSO]: the “AchE inhibition in screen (choline production)” value in assay [1] is listed as “some inhibition”. As to `CC[N+](C)(C)c1cccc(O)c1` [edrophonium], the IC50 is 63 ± 11 µM in assay [1] and 5.4 µM in assay [2]. Turning to `CNC(=O)Oc1ccc2c(c1)[C@]1(C)CCN(C)[C@@H]1N2C` [eserine], the IC50 in assay [2] (setting [3]) was […]. Take `CC(C)NCC(O)c1ccc(O)c(O)c1` (centres unmarked) [isoproterenol]: the “AchE inhibition in screen (choline production)” value in assay [1] was “some inhibition”. For the compound `CCOC(=O)CC(SP(=S)(OC)OC)C(=O)OCC` (centres unmarked) [malathion], the 50% inhibitory concentration (IC50) was 480 ± 70 µM in assay [1] and 370 µM in assay [2] (setting [3]). As for `CN(C)C(=O)Oc1cccc([N+](C)(C)C)c1` [neostigmine], the IC50 in assay [2] was 0.0113 µM.

The term IC50 denotes the concentration needed to halve the response being measured.
